Assay [1] has as its target T1, human SGLT2 (Homo sapiens, UniProt P31639).
T1 construct: expressed in transfected cells; host or cells: CHO-K1
T1 sequence (P31639 1-672): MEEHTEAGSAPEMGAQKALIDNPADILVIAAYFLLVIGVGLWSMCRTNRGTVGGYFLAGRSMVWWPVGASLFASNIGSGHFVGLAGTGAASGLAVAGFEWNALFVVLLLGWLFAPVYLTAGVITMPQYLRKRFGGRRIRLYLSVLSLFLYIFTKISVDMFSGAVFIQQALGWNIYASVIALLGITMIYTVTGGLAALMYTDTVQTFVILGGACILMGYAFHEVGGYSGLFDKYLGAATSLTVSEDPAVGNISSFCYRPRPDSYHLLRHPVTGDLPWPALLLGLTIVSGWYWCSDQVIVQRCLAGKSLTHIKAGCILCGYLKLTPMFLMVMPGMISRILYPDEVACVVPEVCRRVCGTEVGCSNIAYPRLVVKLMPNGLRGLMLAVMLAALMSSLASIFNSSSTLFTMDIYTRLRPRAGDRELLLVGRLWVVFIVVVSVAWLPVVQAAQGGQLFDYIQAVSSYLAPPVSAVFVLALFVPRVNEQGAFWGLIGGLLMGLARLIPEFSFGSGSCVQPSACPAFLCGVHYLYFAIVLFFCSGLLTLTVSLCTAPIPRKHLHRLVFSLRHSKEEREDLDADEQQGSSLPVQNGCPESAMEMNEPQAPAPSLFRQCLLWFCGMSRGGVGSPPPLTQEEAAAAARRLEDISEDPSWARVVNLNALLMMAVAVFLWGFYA
Put plainly: Inhibitory activity against methyl-α-D-glucopyranoside uptake, CHO cells stably expressing human SGLT2. It counts as cell-based. Particulars: inhibition of SGLT2, Table 2-1; read-out: IC50 value. From the text:
Evaluation of inhibitory activity against methyl-α-D-glucopyranoside uptake of human Na^+-glucose cotransporter (SGLT1 and SGLT2)
2) Construction of Human SGLT2 Expression Vector
Human SGLT2 cDNA was amplified by PCR with a cDNA library derived from human kidney (Clontech) as a template, synthetic DNA primers and KOD+ DNA Polymerase. The amplified cDNA was inserted into pcRII-Topo vector by using a Topo TA Cloning Dual Promoter kit. E. coli competent cells (TPO10) were transformed with the plasmid vector, cultured in LB medium containing ampicillin (50 mg/L) to grow ampicillin-resistant clones. The plasmid vector containing human SGLT2 cDNA was purified from the clone in a standard manner. Human SGLT2 cDNA added restriction enzyme recognition sites (Xho I at 5′-end, Hind III at 3′-end) was amplified by PCR with the plasmid vector as a template, synthetic DNA primers containing an additional restriction enzyme recognition site and KOD+ DNA Polymerase. This amplified cDNA was digested with Xho I and Hind III, and ligated into expression vector pcDNA3.1(−) digested with Xho I and Hind III by using a Rapid DNA Ligation kit. E. coli competent cells (DH5α) were transformed with the ligated expression vector and grown in ampicillin-containing LB medium. Human SGLT2 expression vector was purified from the ampicillin-resistant clone in a standard manner.
3) Establishment of Cell Lines Stably Expressing Human SGLT1 or Human SGLT2
The human SGLT1 expression vector or the human SGLT2 expression vector was digested with the restriction enzyme Pvu I and transfected into CHO-Kl cells with FuGENE (Roche Diagonostics). After the transfection, the cells were cultured at 37° C. in the presence of 5% CO2 for about 3 weeks in DMEM medium (Gibco) containing penicillin (50 U/mL, SIGMA), streptomycin (50 mg/L, SIGMA), geneticin (200 mg/L, Nacalai Tesque, Inc., Japan) and 20% fetal bovine serum to obtain geneticin-resistant clones. Among these clones, clones stably expressing human SGLT1 or human SGLT2 were selected by the evaluating the sodium-dependent uptake activity of sugar (methyl-α-D-glucopyranoside).
4) Evaluation of Inhibitory Activity Against methyl-α-D-glucopyranoside uptake
Cell lines stably expressing human SGLT1 or human SGLT2 CHO were seeded in 96-well culture plates at a density of 30000 to 40000 cells/well and cultured for 4 to 6 days. The medium in these plates was removed and replaced by 150 μL/well pretreatment buffer (i.e., a buffer containing 140 mM choline chloride, 2 mM potassium chloride, 1 mM calcium chloride, 1 mM magnesium chloride, 10 mM 2-[4-(2-hydroxyethyl)-1-piperazinyl]ethanesulfonic acid and tris(hydroxymethyl)aminomethane, pH 7.4), and the plates were incubated at 37° C. for 20 minutes. The pretreatment buffer in the plates was removed, replaced by 50 μL/well fresh pretreatment buffer, and the plates were incubated at 37° C. for 20 minutes. Methyl-α-D-(U—^14C)glucopyranoside (6.3 mL, Amersham Pharmacia Biotech, 200 mCi/L) was added to and mixed with 100 mL buffer (i.e., a buffer containing 140 mM sodium chloride, 2 mM potassium chloride, 1 mM calcium chloride, 1 mM magnesium chloride, 1 mM methyl-α-D-glucopyranoside, 10 mM [4-(2-hydroxyethyl)-1-piperazinyl]ethanesulfonic acid and tris(hydroxymethyl)aminomethane, pH 7.4), which was used as uptake buffer. Test compounds were dissolved into uptake buffer and these test compound solutions were used for evaluating inhibitory activity. Uptake buffer without a test compound was used as a control solution. Moreover, for use in measuring baseline uptake in the absence of sodium, sodium-free solution was prepared in the same manner to contain 140 mM choline chloride instead of sodium chloride. The pretreatment buffer was removed from each well of the plates and replaced by 35 μL/well test compound solutions, control solution or sodium-free solution, and the plates were incubated at 37° C. for 45 minutes. […]

The subject of assay [2] is db/db mice. Kind of assay: Study for glucose lowering effect in db/db mouse. The assay is classed as in vivo. The settings on record: Mus musculus, 6 hours. As to the method: Study for Glucose Lowering Effect in dB/dB Mouse
A study for glucose lowering effect was conducted using db/db mice (purchased from Clea Japan, Inc., male, 9 to 11 weeks old), type 2 diabetic model mice. On the day of the study, body weights and blood glucose levels were measured prior to the start of testing. Measurement of the blood glucose levels was performed using a simple blood glucose meter (manufactured by Bayer HealthCare, Dexter-Z II). The mice were allocated to some groups consisting of 5 mice each so that homogeneity of body weights or blood glucose levels among groups would be ensured. Blood collection was carried out by making an incision on the tip of the tail and taking the blood therefrom. On the day of the study, the test compounds were suspended in 0.5% carboxymethylcellulose solution (CMC solution), and the dosing solutions of which concentration was adjusted to either 0.3 mg/10 mL or 3 mg/10 mL were prepared. The dosing solutions were orally administered by gavage for mice in 10 mL/kg. To the control group, only a 0.5% CMC solution was orally administered in 10 mL/kg. Blood was collected prior to or sequentially after administration of test compounds by above method. The blood glucose levels were determined using a hexokinase method (AutoSera S GLU, manufactured by Daiichi Pure Chemicals Co., Ltd.). A percent reduction of blood glucose relative to control group at each time point after administration of test compounds was calculated by the following equation.
Percent reduction of blood glucose (%)={blood glucose level in the control group (mg/dL)-blood glucose level in the test compound group (mg/dL)}/blood glucose level in the control group (mg/dL)×100

Where two headings read alike, the source gives them in different places.

`OC[C@H]1O[C@]2(OCc3cc(Cl)c(Cc4ccc(OC(F)(F)F)cc4)cc32)[C@H](O)[C@@H](O)[C@@H]1O` [Example 11, (1S,3′R,4′S,5′S,6′R)-5-chloro-6-[(4-trifluoromethoxyphenyl)methyl]-3′,4′,5′,6′-tetrahydro-6′-(hydroxymethyl)-spiro[isobenzofuran-1(3H),2′-[2H]pyran]-3′,4′,5′-triol]: the IC50 in assay [1] is 1.9 nM. Besides, the inhibition in vivo at 0.3 mg/kg in assay [2] (oral, 0.3 mg/kg, relative to control group, Table 3-1, read-out: Percent reduction of blood glucose (%) 6 hours after administration) is 45%.

Turning to `COc1ccc(Cc2cc3c(cc2F)CO[C@]32O[C@H](CO)[C@@H](O)[C@H](O)[C@H]2O)cc1` [Example 20, (1S,3′R,4′S,5′S,6′R)-5-fluoro-3′,4′,5′,6′-tetrahydro-6′-(hydroxymethyl)-6-[(4-methoxyphenyl)methyl]-spiro[isobenzofuran-1(3H),2′-[2H]pyran]-3′,4′,5′-triol], the IC50 in assay [1] turned out to be 2.2 nM. Besides, the inhibition in vivo at 0.3 mg/kg in assay [2] (po, 0.3 mg/kg administration, read-out: reduction of blood glucose 6 hours after administration) was at least 25%.

What is called IC50 is the point on the concentration scale where inhibition reaches its midpoint.
